What was measured:
[1] = system: colchicine site on tubulin (Porcine brain tubulin); assay: Colchicine displacement assay, fluorometric detection; type: binding; conditions: 2 μM porcine brain tubulin, 2 μM colchicine, compound at 20 μM, 2 h; control = colchicine bound to tubulin
Experimental: To study whether the compounds bind to the colchicine site on tubulin, a colchicine displacement assay using fluorometric detection was performed as previously described (Bhattacharyya B. et al.; Proc Natl Acad Sci U S A 1974, 71:2627-31; Risinger A L. et al.; J Pharmacol Exp Ther 2011: 336:652-60). Porcine brain tubulin at 2 μM (Cytoskeleton) in a buffer consisting of 80 mM PIPES, 2 mM MgCl2, 0.5 mM EGTA at pH 7.0 with addition of 1 mM GTP, was incubated alone, with 2 μM colchicine or with 2 μM colchicine in the presence of test compounds or reference compound combretastatin A4 at 20 μM for 2 h in a black half-area 96-well plate (Corning Inc, Corning, N.Y., USA). Thereafter, the fluorescence was measured using a FLUOStar Optima (BMG Labtech) at an excitation of 380 nm and emission of 440 nm. The results are presented as percent of control i.e. colchicine bound to tubulin.

[2] = system: VEGF-induced cord formation; assay: VEGF-driven vascular cord formation, stem cell co-culture model of angiogenesis (StemKit), neo-angiogenic setting; type: cell-based
Experimental: (§1) To study the vascular disrupting properties of one of the compounds, example 3, an evaluation of its inhibitory and disruptive effects on VEGF-driven vascular cord formation in an in vitro stem cell co-culture model of angiogenesis (StemKit, Essen Bioscience) was carried out.

established vessels = assay: Stem cell co-culture model of angiogenesis (StemKit), established vessels; type: cell-based; conditions: doses from 3 nM up to 100 nM, example 3 and combretastatin A4 had equal potency
Experimental: as §1

[3] = system: CCRF-CEM cancer cells - leukemia; assay: Fluorometric Microculture Cytotoxicity Assay (FMCA), CCRF-CEM; type: cell-based; conditions: Homo sapiens, 72 h, CCRF-CEM acute lymphoblastic leukemia cell line
From the text: (§2) The Fluorometric Microculture Cytotoxicity Assay, FMCA (Larsson, R., et al.; Anticancer Res, 1989, 9, 1111-1119), is a three day non-clonogenic microplate-based cell viability assay used for measurement of the cytotoxic and/or cytostatic effect of compounds in vitro (Lindhagen, E. et al.; Nat. Protoc., 2008, 3, 1364-1369). FMCA represents a valuable method to measure cytotoxicity in a number of cell types, both cell lines and primary cells from patients (Larsson, R., et al.; Int. J. Cancer, 1992, 50, 177-185; Fridborg, H., et al.; Eur. J. Cancer, 1999. 35, 424-432; Dhar, S., et al.; Br. J. Cancer, 1996, 74, 888-896).
(§3) FMCA is based on the principle that fluorescein diacetate (FDA) is converted to the fluorescent probe fluorescein by esterases […]. For experiments, 96-well microplates are prepared with compounds and stored at −20° C. or −70° C. until use. Cells are then seeded into the drug-prepared plates and placed in an incubator for 72 h. On the last day of incubation, the plates are washed and a buffer containing FDA is added and incubated with the cells for 45 minutes. Finally the fluorescence per well is measured in a fluorometer and a Survival Index % (SI) for each compound-treated well is calculated with the equation: Compound-treated cells minus blank divided by control cells minus blank. A high SI-value indicates a large percentage of living cells and vice versa.
For experiments with compounds of the invention, 96-well plates were prepared as follows: Compounds were dissolved in DMSO to 10 mM and stored at −20° C. The test compounds were thawed, protected from light, mixed, and 3 μl stock solution was added to test tubes containing 297 μl culture medium RPMI-1640, to give the concentration 100 μM. Then, compounds were serially diluted to concentrations ten times higher than the desired test concentrations. Finally, 20 μl of each compound solution was added in duplicates to wells in two V-bottomed 96-well plates. The plates were stored at −20° C. until use.
On the day of cell seeding, 180 μl of cell suspension was added to each well in the two assay plates. The final concentrations of compounds tested were 10 μM, 1 μM, 0.1 μM and 0.01 μM. The experiment was performed twice.
In subsequent experiments, compounds were tested, along with a number of approved cancer drugs (dasatinib and pazopanib) as described above. The acute lymphoblastic leukemia cell line CCRF-CEM was used throughout. In the assay plates, medium was added to eight empty wells (blank wells) and wells filled with cell suspension served as control wells. SI-values were then calculated for each compound-treated well as described above. All experiments were conducted twice and a new batch of plates was prepared for each experiment.
(§4) To obtain EC50-values, plates were prepared with compounds serially diluted in culture media to suitable concentration ranges for each compound. Thereafter cells were added at a density of 10 000 cells per well and FMCA was performed after 72 h. Data analysis was performed using GraphPadPrism software, where SI values for each concentration were plotted on a log scale and processed with non-linear regression and a standard sigmoidal dose-response model.

A2780 = assay: FMCA cytotoxicity, ovarian cancer cell line A2780; type: cell-based; conditions: Homo sapiens
From the text: as §2, §3, §4
(§5) The compounds of the invention were also tested on further cancer cell lines related to ovarian cancer (A2780; see e.g. Hamilton, T. et al.; Semin. Oncol., 1984, 11, 285-298) and multidrug-resistant ovarian cancer (A2780/Adr). The known microtubule interfering agents vincristine and paclitaxel were included as references in the resistant and non-resistant ovarian cancer cell lines.

A2780/Adr = assay: FMCA cytotoxicity, multidrug-resistant ovarian cancer cell line A2780/Adr; type: cell-based
From the text: as §2, §3, §4, §5

bovine tubulin protein = assay: Tubulin polymerization assay kit (Cytoskeleton Inc), fluorescence; type: biochemical; conditions: cell-free, example compounds at 1, 3 and 10 μM, controls at 3 μM, 60 mins, read-out: Inhibition of tubulin polymerization IC50
Experimental: Example compounds were further tested in a tubulin polymerization assay kit from Cytoskeleton Inc (Denver, Colo., USA). Polymerization is followed by fluorescence enhancement due to the incorporation of a fluorescent reporter into microtubules as polymerization occurs. Vincristine and paclitaxel at 3 μM were used as positive controls for tubulin polymerization inhibition and stabilisation, respectively. All compounds were dissolved in DMSO, which was used as solvent control. For experiments, example compounds (1, 3, and 10 μM) and control compounds (3 μM) were incubated with bovine tubulin protein in a cell-free environment and the fluorescence was then measured in a fluorometer (Fluostar Optima, BMG Labtech, Offenburg, Germany) at 360/450 nm every minute for a total of 60 mins.

Row | SMILES | Colchicine-tubulin binding Percent of control [1] | IC50 (bovine tubulin protein) | threshold concentration of inhibitory effect on VEGF-induced cord formation ([2]; tested from 0.78 nM and upwards, dose dependent inhibitory effect) | disruption of established blood vessels (established vessels) | EC50 [3] | EC50 (A2780) | EC50 (A2780/Adr) | inhibition of VEGF-induced cord formation ([2]; from the lowest tested dose 4.6 nM up to 10 μM)
1 | COc1ccc(/C=C\c2cc(OC)c(OC)c(OC)c2)cc1O [Combretastatin A4, combretastatin A4, reference compound] | 66% of control |  | 1.6 nM | concentration dependent disruption of blood vessels |  |  |  | 
2 | CCOc1ccc2[nH]cc(CCNc3nccc(Nc4cccc5c4cnn5C)n3)c2c1 [Example 1] | 68% of control | 1000 to 3000 nM |  |  | 1.9 nM | 0.4 nM | 3.6 nM | 
3 | CCOc1ccc2[nH]cc(CCNc3nccc(Nc4ccc5cn(C)nc5c4)n3)c2c1 [Example 3, N^2-[2-(5-ethoxy-1H-indol-3-yl)ethyl]-N^4-(2-methyl-2H-indazol-6-yl)pyrimidine-2,4-diamine] | 68% of control | ~3000 nM |  | concentration dependent disruption of blood vessels | 5.3 nM | 0.72 nM | 16 nM | 100%
4 | CCOc1ccc2[nH]cc(CCNc3nccc(Nc4ccc5c(C)n(C)nc5c4)n3)c2c1 [Example 5, N^4-(2,3-dimethyl-2H-indazol-6-yl)-N^2-[2-(5-ethoxy-1H-indol-3-yl)ethyl]pyrimidine-2,4-diamine] |  |  |  |  | 5.5 nM | 8.5 nM | 150 nM | 
5 | CC(=O)O[C@H]1C(=O)[C@@]2(C)[C@H]([C@H](OC(=O)c3ccccc3)[C@]3(O)C[C@H](OC(=O)[C@H](O)[C@@H](NC(=O)c4ccccc4)c4ccccc4)C(C)=C1C3(C)C)[C@]1(OC(C)=O)CO[C@@H]1C[C@@H]2O [Paclitaxel, paclitaxel, reference compound] |  |  |  |  |  | 0.26 nM | 810 nM | 
6 | Cc1nc(Nc2ncc(C(=O)Nc3c(C)cccc3Cl)s2)cc(N2CCN(CCO)CC2)n1 [Ref. 1, dasatinib, reference compound] |  |  |  |  | 9700 nM |  |  | 
7 | Cc1ccc(Nc2nccc(N(C)c3ccc4c(C)n(C)nc4c3)n2)cc1S(N)(=O)=O [Ref. 2, pazopanib, reference compound] |  |  |  |  | 25900 nM |  |  | 

More lines, main results first:

Row | Colchicine-tubulin binding Percent of control [1] | IC50 (bovine tubulin protein) | SMILES | threshold concentration of inhibitory effect on VEGF-induced cord formation ([2]; tested from 0.78 nM and upwards, dose dependent inhibitory effect) | disruption of established blood vessels (established vessels) | EC50 [3] | EC50 (A2780) | EC50 (A2780/Adr) | inhibition of VEGF-induced cord formation ([2]; from the lowest tested dose 4.6 nM up to 10 μM)
8 | 77% of control |  | COc1ccc2[nH]cc(CCNc3nccc(Nc4ccc5cn(C)nc5c4)n3)c2c1 [Example 2, N^2-[2-(5-methoxy-1H-indol-3-yl)ethyl]-N^4-(2-methyl-2H-indazol-6-yl)pyrimidine-2,4-diamine] |  |  | 5.1 nM | 9.3 nM | 34 nM | 
9 | 94% of control | ~3000 nM | COc1ccc2[nH]cc(CCNc3nccc(Nc4ccc5c(C)n(C)nc5c4)n3)c2c1 [Example 4, N^4-(2,3-dimethyl-2H-indazol-6-yl)-N^2-[2-(5-methoxy-1H-indo1-3-yl)ethyl]pyrimidine-2,4-diamine] |  |  | 11 nM | 34 nM | 370 nM | 
10 | 99% of control | 3000 to 10000 nM | CCOc1ccc2[nH]cc(CCNc3nc(C)cc(Nc4ccc5c(C)n(C)nc5c4)n3)c2c1 [Example 6, N^4-(2,3-dimethylindazol-6-yl)-N^2-[2-(5-ethoxy-1H-indol-3-yl)ethyl]-6-methyl-pyrimidine-2,4-diamine] |  |  | 34 nM | 47 nM | 390 nM | 
11 | 64% of control |  | COc1ccc2[nH]cc(CCNc3nccc(Nc4cccc5c4cnn5C)n3)c2c1 [Example 7, N^2-[2-(5-methoxy-1H-indol-3-yl)ethyl]-N^4-(1-methylindazol-4-yl)pyrimidine-2,4-diamine] |  |  | 5.1 nM | 2.9 nM | 13 nM | 
12 |  | < 3000 nM | CC[C@]1(O)C[C@H]2CN(CCc3c([nH]c4ccccc34)[C@@](C(=O)OC)(c3cc4c(cc3OC)N(C=O)[C@H]3[C@@](O)(C(=O)OC)[C@H](OC(C)=O)[C@]5(CC)C=CCN6CC[C@]43[C@@H]65)C2)C1 [Vincristine, vincristine, reference compound] |  |  |  | 0.22 nM | 210 nM | 

From patent US20150225374A1, “4-INDAZOLYLAMINO-2-(2-(INDOL-3-YL)ETHYL)AMINOPYRIMIDINES USEFUL FOR THE TREATMENT OF CANCER” (NOVIGA RESEARCH AB, priority 2012, published 2015)
